Reference: ChEMBL document CHEMBL1221220, “Transport and signaling via the amino acid binding site of the yeast Gap1 amino acid transceptor” (Nat Chem Biol, 2009)
Positions count from the first letter of the chain named. Active and inactive are the calls of the source. The rule behind the calls is not given here.

Experiments:
[1] = system: General amino-acid permease GAP1 (Saccharomyces cerevisiae), P19145 [S388C]; assay: Induction of yeast Gap1 S388C mutant-mediated trehalose activation at 2 mM in presence of 10 mM MTSEA treated before compound addition
Sequence of General amino-acid permease GAP1 (Saccharomyces cerevisiae), P19145 [S388C] (P19145 whole entry S388C): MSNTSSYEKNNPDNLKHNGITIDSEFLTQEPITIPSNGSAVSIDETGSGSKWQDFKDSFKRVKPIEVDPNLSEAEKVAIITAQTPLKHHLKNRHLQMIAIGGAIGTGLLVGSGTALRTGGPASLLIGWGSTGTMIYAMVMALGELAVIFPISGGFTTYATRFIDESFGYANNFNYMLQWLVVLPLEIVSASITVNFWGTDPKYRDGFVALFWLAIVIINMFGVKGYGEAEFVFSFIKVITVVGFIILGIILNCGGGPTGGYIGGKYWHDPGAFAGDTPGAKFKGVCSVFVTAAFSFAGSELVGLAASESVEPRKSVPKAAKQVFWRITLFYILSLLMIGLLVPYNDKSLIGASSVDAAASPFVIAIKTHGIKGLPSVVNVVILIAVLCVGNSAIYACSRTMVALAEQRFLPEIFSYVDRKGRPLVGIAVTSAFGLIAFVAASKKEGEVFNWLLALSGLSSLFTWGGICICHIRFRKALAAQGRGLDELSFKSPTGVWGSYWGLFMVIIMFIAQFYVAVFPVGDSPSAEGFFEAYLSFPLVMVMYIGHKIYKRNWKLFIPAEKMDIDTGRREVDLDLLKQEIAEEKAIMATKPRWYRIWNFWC

[2] = system: T1, General amino-acid permease GAP1 (Saccharomyces cerevisiae), P19145 [M401C]; assay: Activation of yeast Gap1 M401C mutant-mediated amino acid uptake at 10 mM
T1 sequence (whole entry): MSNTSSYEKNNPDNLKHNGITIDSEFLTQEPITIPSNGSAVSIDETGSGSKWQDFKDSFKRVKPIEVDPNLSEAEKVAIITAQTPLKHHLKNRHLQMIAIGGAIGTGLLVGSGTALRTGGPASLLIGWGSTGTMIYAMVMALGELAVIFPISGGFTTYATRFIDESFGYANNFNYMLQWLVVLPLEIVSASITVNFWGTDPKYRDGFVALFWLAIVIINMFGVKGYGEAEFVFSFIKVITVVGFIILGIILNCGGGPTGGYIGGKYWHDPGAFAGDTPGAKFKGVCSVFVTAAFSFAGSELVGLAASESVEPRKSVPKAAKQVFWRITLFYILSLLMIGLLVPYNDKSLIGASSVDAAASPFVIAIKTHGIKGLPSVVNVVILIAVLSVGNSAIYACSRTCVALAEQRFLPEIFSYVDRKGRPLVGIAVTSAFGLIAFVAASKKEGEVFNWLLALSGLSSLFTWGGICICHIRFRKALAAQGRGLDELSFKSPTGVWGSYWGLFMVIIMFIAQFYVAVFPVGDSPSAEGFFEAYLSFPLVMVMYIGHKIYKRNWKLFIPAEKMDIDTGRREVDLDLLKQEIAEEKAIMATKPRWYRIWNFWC

[3] = system: T2, General amino-acid permease GAP1 (Saccharomyces cerevisiae), P19145 [A393C]; assay: Induction of yeast Gap1 A393C mutant-mediated […] activation at 2 mM in presence of 10 mM MTSEA treated before compound addition
T2 sequence (whole entry): T1 sequence (whole entry) with A393C, C401M

[4] = system: T3, General amino-acid permease GAP1 (Saccharomyces cerevisiae), P19145 [V381C]; assay: Induction of yest Gap1 V381C mutant-mediated trehalose activation at 10 mM
T3 sequence (whole entry): T1 sequence (whole entry) with V381C, C401M

[5] = system: T4, General amino-acid permease GAP1 (Saccharomyces cerevisiae), P19145 [G390C]; assay: Induction of yeast Gap1 G390C mutant-mediated trehalose activation at 10 mM
T4 sequence (whole entry): T1 sequence (whole entry) with G390C, C401M

## NC(=O)NCCC[C@H](N)C(=O)O
[1]
  inhibition: inactive
[2]
  Activity: inactive
[3]
  inhibition: Active
[4]
  Activity: inactive
[5]
  Activity: inactive
